# Data published in patent US20020137929A1, “1 - (3-heterocyclylphenyl) isothiourea, -isourea, -guanidine and -amidine herbicidal agents” (Intellectual Property Department, BASF Aktiengesellschaft, priority 1998, published 2002).
# How the values were obtained:
# [1] = test system: SAGPY (Arrowhead (Pygmaea)); test: Preemergence weed control under flooded paddy conditions; assay type: in vivo, Sagittaria pygmaea; conditions: rated 3-4 weeks after treatment
# Summary of the method: (§1)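 Silt loam, seeds in top 0.5 cm; flood held 1.5-3 cm; test cpd as acetone/water 50/50 into flood water, ~0.0313-0.500 kg/ha a.i.; greenhouse 3-4 wk; visual 0-9 score vs control.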
# [2] = test system: MOOVA (Monochoria); test: as above; assay type: in vivo, Monochoria vaginalis; conditions: rated 3-4 weeks after treatment
# Summary of the method: as §1
# [3] = test system: CASOB (Sicklepod); test: Postemergence herbicidal evaluation; assay type: in vivo, Cassia obtusifolia; conditions: postemergence
# Summary of the method: (§2)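 Rate range approx. 0.0156–0.500 kg/ha. Foliar application at 40 psi to ~2-week seedlings; surfactant 0.5% TWEEN 20 in 50/50 acetone/water. Evaluation 4–5 wk post-treatment by 0–9 visual injury score, means of replicate tests.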
# [4] = test system: ABUTH (Velvetleaf); test: Preemergence herbicidal evaluation; assay type: in vivo, Abutilon theophrasti; conditions: rated 4-5 weeks after treatment
# Summary of the method: (§3)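 Seeds were planted in potting soil in cups, then sprayed preemergence with the test compound in aqueous acetone at about 0.0156 to 0.500 kg per hectare. Cups were kept under greenhouse conditions and visually rated 4–5 weeks after treatment on a 0–9 scale against an untreated control.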
# [5] = test system: TRZAWR (Wheat, Winter, cv Riband); test: Preemergence herbicidal evaluation; assay type: in vivo, Triticum aestivum; conditions: rated 4-5 weeks after treatment
# Summary of the method: as §3
# [6] = test system: GALAP (Galium); test: Postemergence herbicidal evaluation; assay type: in vivo, Galium aparine; conditions: postemergence
# Summary of the method: as §2
# [7] = test system: ZEAMX (Corn, Field); test: Preemergence herbicidal evaluation; assay type: in vivo, Zea mays; conditions: rated 4-5 weeks after treatment
# Summary of the method: as §3
# [8] = test system: IPOHE (Morningglory, Ivyleaf); test: Postemergence herbicidal evaluation; assay type: in vivo, Ipomoea hederacea; conditions: postemergence
# Summary of the method: as §2
# [9] = test system: CASOB (Sicklepod); test: Preemergence herbicidal evaluation; assay type: in vivo, Cassia obtusifolia; conditions: rated 4-5 weeks after treatment
# Summary of the method: as §3
# [10] = test system: ECHCG (Barnyardgrass); test: Preemergence herbicidal evaluation; assay type: in vivo, Echinochloa crus-galli; conditions: rated 4-5 weeks after treatment
# Summary of the method: as §3
# [11] = test system: IPOHE (Morningglory, Ivyleaf); test: Preemergence herbicidal evaluation; assay type: in vivo, Ipomoea hederacea; conditions: rated 4-5 weeks after treatment
# Summary of the method: as §3
# [12] = test system: AMBEL (Ragweed, Common); test: Postemergence herbicidal evaluation; assay type: in vivo, Ambrosia artemisifolia; conditions: postemergence
# Summary of the method: as §2
# [13] = test system: GLXMAW (Soybean, Williams); test: Preemergence herbicidal evaluation; assay type: in vivo, Glycine max, (L.) Merr. cv Williams; conditions: rated 4-5 weeks after treatment
# Summary of the method: as §3
# [14] = rate 0.0156 kg/ha, rating scale 0-9
# [15] = rate 0.0313 kg/ha, rating scale 0-9
# [16] = rate 0.0625 kg/ha, rating scale 0-9
# [17] = rate 0.1250 kg/ha, rating scale 0-9
# [18] = rate 0.2500 kg/ha, rating scale 0-9
smiles,measurement,setting,value
"Cn1c(C(F)(F)F)cc(=O)n(-c2cc(N=C3SCC(=O)N3CC(=O)OC3CCCC3)c(Cl)cc2F)c1=O [Compound 120, Cyclopentyl 2-{{2-chloro-5-[3,6-dihydro-3-methyl-2,6-dioxo-4-(trifluoromethyl)-1(2H)-pyrimidinyl]-4-fluorophenyl}imino}-4-oxo-3-thiazolidineacetate]","herbicidal effect rating, SAGPY",[1]; 0.0313 kg/ha,0.0
same,"herbicidal effect rating, SAGPY",[1]; 0.0625 kg/ha,0.0
same,"herbicidal effect rating, SAGPY",[1]; 0.1250 kg/ha,2.0
same,"herbicidal effect rating, SAGPY",[1]; 0.2500 kg/ha,7.5
same,"herbicidal effect rating, MOOVA",[2]; 0.0313 kg/ha,8.5
same,"herbicidal effect rating, MOOVA",[2]; 0.0625 kg/ha,9.0
same,"herbicidal effect rating, MOOVA",[2]; 0.1250 kg/ha,9.0
same,"herbicidal effect rating, MOOVA",[2]; 0.2500 kg/ha,9.0
same,Herbicidal rating CASOB,[3]; rate 0.0156 kg/ha,3.0
same,Herbicidal rating CASOB,[3]; rate 0.0313 kg/ha,5.0
same,Herbicidal rating CASOB,[3]; rate 0.0625 kg/ha,8.0
same,Preemergence herbicidal rating ABUTH,[4]; rate 0.0156 kg/ha,0.0
same,Preemergence herbicidal rating ABUTH,[4]; rate 0.0313 kg/ha,9.0
same,Preemergence herbicidal rating ABUTH,[4]; rate 0.0625 kg/ha,9.0
same,Preemergence herbicidal rating ABUTH,[4]; rate 0.1250 kg/ha,9.0
same,Preemergence herbicidal rating ABUTH,[4]; rate 0.2500 kg/ha,9.0
same,Preemergence herbicidal rating TRZAWR,[5]; rate 0.0156 kg/ha,0.0
same,Preemergence herbicidal rating TRZAWR,[5]; rate 0.0313 kg/ha,0.0
same,Preemergence herbicidal rating TRZAWR,[5]; rate 0.0625 kg/ha,0.0
same,Preemergence herbicidal rating TRZAWR,[5]; rate 0.1250 kg/ha,0.0
same,Preemergence herbicidal rating TRZAWR,[5]; rate 0.2500 kg/ha,4.0
same,Herbicidal rating GALAP,[6]; rate 0.0156 kg/ha,2.0
same,Herbicidal rating GALAP,[6]; rate 0.0313 kg/ha,3.0
same,Herbicidal rating GALAP,[6]; rate 0.0625 kg/ha,3.0
same,Preemergence herbicidal rating ZEAMX,[7]; rate 0.0156 kg/ha,0.0
same,Preemergence herbicidal rating ZEAMX,[7]; rate 0.0313 kg/ha,0.0
same,Preemergence herbicidal rating ZEAMX,[7]; rate 0.0625 kg/ha,0.0
same,Preemergence herbicidal rating ZEAMX,[7]; rate 0.1250 kg/ha,0.0
same,Preemergence herbicidal rating ZEAMX,[7]; rate 0.2500 kg/ha,3.0
same,Herbicidal rating IPOHE,[8]; rate 0.0156 kg/ha,9.0
same,Herbicidal rating IPOHE,[8]; rate 0.0313 kg/ha,9.0
same,Herbicidal rating IPOHE,[8]; rate 0.0625 kg/ha,9.0
same,Preemergence herbicidal rating CASOB,[9]; rate 0.0156 kg/ha,0.0
same,Preemergence herbicidal rating CASOB,[9]; rate 0.0313 kg/ha,0.0
same,Preemergence herbicidal rating CASOB,[9]; rate 0.0625 kg/ha,3.0
same,Preemergence herbicidal rating CASOB,[9]; rate 0.1250 kg/ha,4.0
same,Preemergence herbicidal rating CASOB,[9]; rate 0.2500 kg/ha,4.0
same,Preemergence herbicidal rating ECHCG,[10]; rate 0.0156 kg/ha,0.0
same,Preemergence herbicidal rating ECHCG,[10]; rate 0.0313 kg/ha,0.0
same,Preemergence herbicidal rating ECHCG,[10]; rate 0.0625 kg/ha,0.0
same,Preemergence herbicidal rating ECHCG,[10]; rate 0.1250 kg/ha,0.0
same,Preemergence herbicidal rating ECHCG,[10]; rate 0.2500 kg/ha,2.0
same,Preemergence herbicidal rating IPOHE,[11]; rate 0.0156 kg/ha,0.0
same,Preemergence herbicidal rating IPOHE,[11]; rate 0.0313 kg/ha,0.0
same,Preemergence herbicidal rating IPOHE,[11]; rate 0.0625 kg/ha,0.0
same,Preemergence herbicidal rating IPOHE,[11]; rate 0.1250 kg/ha,4.0
same,Preemergence herbicidal rating IPOHE,[11]; rate 0.2500 kg/ha,9.0
same,Herbicidal rating AMBEL,[12]; rate 0.0156 kg/ha,9.0
same,Herbicidal rating AMBEL,[12]; rate 0.0313 kg/ha,9.0
same,Herbicidal rating AMBEL,[12]; rate 0.0625 kg/ha,9.0
same,Preemergence herbicidal rating GLXMAW,[13]; rate 0.0156 kg/ha,0.0
same,Preemergence herbicidal rating GLXMAW,[13]; rate 0.0313 kg/ha,0.0
same,Preemergence herbicidal rating GLXMAW,[13]; rate 0.0625 kg/ha,0.0
same,Preemergence herbicidal rating GLXMAW,[13]; rate 0.1250 kg/ha,0.0
same,Preemergence herbicidal rating GLXMAW,[13]; rate 0.2500 kg/ha,3.0
"Cn1c(C(F)(F)F)cc(=O)n(-c2cc(N=C3SCC(=O)N3Cc3ccc(F)cc3)c(Cl)cc2F)c1=O [Compound 151, 3-{4-Chloro-2-fluoro-5-{[3-(p-fluorobenzyl)-4-oxo-2-thiazolidinylidene]amino}phenyl}-1-methyl-6-(trifluoromethyl)-2,4(1H,3H)-pyrimidinedione]","herbicidal effect rating, SAGPY",[1]; 0.0313 kg/ha,0.0
same,"herbicidal effect rating, SAGPY",[1]; 0.0625 kg/ha,2.0
same,"herbicidal effect rating, SAGPY",[1]; 0.1250 kg/ha,8.0
same,"herbicidal effect rating, SAGPY",[1]; 0.2500 kg/ha,6.0
same,"herbicidal effect rating, MOOVA",[2]; 0.0313 kg/ha,6.0
same,"herbicidal effect rating, MOOVA",[2]; 0.0625 kg/ha,9.0
same,"herbicidal effect rating, MOOVA",[2]; 0.1250 kg/ha,9.0
same,"herbicidal effect rating, MOOVA",[2]; 0.2500 kg/ha,9.0
same,Herbicidal rating CASOB,[3]; rate 0.0156 kg/ha,2.0
same,Herbicidal rating CASOB,[3]; rate 0.0313 kg/ha,4.0
same,Herbicidal rating CASOB,[3]; rate 0.0625 kg/ha,4.0
same,Preemergence herbicidal rating ABUTH,[4]; [14],9.0
same,Preemergence herbicidal rating ABUTH,[4]; [15],9.0
same,Preemergence herbicidal rating ABUTH,[4]; [16],9.0
same,Preemergence herbicidal rating ABUTH,[4]; [17],9.0
same,Preemergence herbicidal rating ABUTH,[4]; [18],9.0
same,Preemergence herbicidal rating TRZAWR,[5]; [14],2.0
same,Preemergence herbicidal rating TRZAWR,[5]; [15],6.0
same,Preemergence herbicidal rating TRZAWR,[5]; [16],5.0
same,Preemergence herbicidal rating TRZAWR,[5]; [17],8.0
same,Preemergence herbicidal rating TRZAWR,[5]; [18],9.0
same,Herbicidal rating GALAP,[6]; rate 0.0156 kg/ha,4.0
same,Herbicidal rating GALAP,[6]; rate 0.0313 kg/ha,4.0
same,Herbicidal rating GALAP,[6]; rate 0.0625 kg/ha,6.0
same,Preemergence herbicidal rating ZEAMX,[7]; [14],7.0
same,Preemergence herbicidal rating ZEAMX,[7]; [15],7.0
same,Preemergence herbicidal rating ZEAMX,[7]; [16],7.0
same,Preemergence herbicidal rating ZEAMX,[7]; [17],9.0
same,Preemergence herbicidal rating ZEAMX,[7]; [18],9.0
same,Herbicidal rating IPOHE,[8]; rate 0.0156 kg/ha,9.0
same,Herbicidal rating IPOHE,[8]; rate 0.0313 kg/ha,9.0
same,Herbicidal rating IPOHE,[8]; rate 0.0625 kg/ha,9.0
same,Preemergence herbicidal rating CASOB,[9]; [14],0.0
same,Preemergence herbicidal rating CASOB,[9]; [15],2.0
same,Preemergence herbicidal rating CASOB,[9]; [16],2.0
same,Preemergence herbicidal rating CASOB,[9]; [17],9.0
same,Preemergence herbicidal rating CASOB,[9]; [18],9.0
same,Preemergence herbicidal rating ECHCG,[10]; [14],2.0
same,Preemergence herbicidal rating ECHCG,[10]; [15],9.0
same,Preemergence herbicidal rating ECHCG,[10]; [16],7.0
same,Preemergence herbicidal rating ECHCG,[10]; [17],9.0
same,Preemergence herbicidal rating ECHCG,[10]; [18],9.0
same,Preemergence herbicidal rating IPOHE,[11]; [14],4.0
same,Preemergence herbicidal rating IPOHE,[11]; [15],9.0
same,Preemergence herbicidal rating IPOHE,[11]; [16],9.0
same,Preemergence herbicidal rating IPOHE,[11]; [17],9.0
same,Preemergence herbicidal rating IPOHE,[11]; [18],9.0
same,Herbicidal rating AMBEL,[12]; rate 0.0156 kg/ha,7.0
same,Herbicidal rating AMBEL,[12]; rate 0.0313 kg/ha,7.0
same,Herbicidal rating AMBEL,[12]; rate 0.0625 kg/ha,9.0
same,Preemergence herbicidal rating GLXMAW,[13]; [14],2.0
same,Preemergence herbicidal rating GLXMAW,[13]; [15],5.0
same,Preemergence herbicidal rating GLXMAW,[13]; [16],4.0
same,Preemergence herbicidal rating GLXMAW,[13]; [17],7.0
same,Preemergence herbicidal rating GLXMAW,[13]; [18],7.0
